The subject of experiment [1] is mice pain induced by acetic acid. In words: Analgesic test, mice writhing induced by acetic acid. The class given is in vivo, Kunming mice. To be noted: 200 mg/kg intragastric; within 15 min after 0.7% acetic acid. As to the method: 72 Kunming mice were randomly divided into 6 groups, with 12 mice for each group. (1) the blank normal control group (i.e. saline group, […]); (2) positive drug aspirin group (200 mg/kg); (3) ibuprofen group (300 mg/kg); (4) high dose group of phillygenin ibuprofen ester (300 mg/kg); (5) medium dose group of phillygenin ibuprofen ester (150 mg/kg); (6) low dose group of phillygenin ibuprofen ester (75 mg/kg). […] The number of mice writhings within 15 min after administration was recorded. The number of writhings was taken as the evaluation index to evaluate the analgesic effect.

Experiment [2] has as its system rat toe swelling induced by carrageenan. In words: Rat toe swelling induced by carrageenan. Format: in vivo, Wistar rats. Particulars: 200 mg/kg sublingual intravenous injection. Here is the method: The test groups were administered by sublingual intravenous injection. Before the test, capillary magnification measurement method was used to measure the normal volume of the right hind foot of the rats in each group. To avoid errors, the measurement location was fixed and the operation was made by one person both before and after the administration. The average value of the two measurements was taken as the normal volume of the right hind foot of the rats before administration. […] The difference between the groups was compared by inter-group t test processing through the difference percentage (swelling ratio) of the paw volume before and after the induced rat inflammation.

For experiment [3], the system named is sweat secretion of rat paw part. The experiment can be described thus: Sweat secretion of rat paw part (coloring method). Format: in vivo, Wistar rats. To be noted: 35.0 mg/kg subcutaneous; for Animal number of sweat points of level +: + = sweat area below about 10%; for Animal number of sweat points of level ++: ++ = sweat area about 11-40%; for Animal number of sweat points of level +++: +++ = sweat area about 41-70%; for Animal number of sweat points of level ++++: ++++ = sweat area over 71%; for Animal number of sweat points of level −: − = no sweat point. From the text:
This test was designed to observe the change of sweat secretion based on the mechanism that sweat gland is distributed on the rat paw pads, and iodine and starch can have purple reaction when encountered with sweat. In the test, 350 Wistar rats were selected, with equal male and female number, weighing 120-150 g. […] The rats were placed in a self-made rat fixation bag, with the double hind limbs exposed. The dirts on the right paw was gently scrubbed clean with the cotton swab dipped with anhydrous ethanol. Besides that subcutaneous injection was used for the pilocarpine solution, intragastric administration was used for all the other groups. […] When the test was complete, statistical process was carried out according to the rank-sum test with two-sample comparison, in order to compare the difference between the groups.

The test system of experiment [4] is sweat gland epithelial cells at the rat toe part. The experiment can be described thus: Sweat secretion of rat paw part (tissue morphology observation method). To be noted: rat toe part; 35.0 mg/kg subcutaneous. Format: in vivo, Wistar rats. An excerpt:
This test was based on the mechanism that when rat sweat gland is excited, in addition to sweat secretion increase, the morphology of sweat gland epithelial cell is also changed. The number increase and expansion of empty cells of the sweat gland epithelial cells can be seen under the optical microscope. Such enlarged vacuole presents mitochondrial in sweat gland epithelial cells swelling, rupture, fusion and secretory vesicle enlargement under the electron microscope, and through the morphological observation of the sweat gland epithelial cell at the rat paw part, the secretory activity of the sweat gland can be known. In the test, 70 Wistar rats were selected, with equal male and female number, weighing 120-160 g. […] Besides that subcutaneous injection was used for the pilocarpine solution, intragastric administration was used for all the other groups.

Experiment [5] has as its system beer yeast induced rat fever. In words: Beer yeast induced rat fever. The class given is in vivo, Wistar rats. Particulars: 100 mg/kg. As to the method:
Male Wistar rats were selected, weighing 180-200 g. Before the test, WSC-411P portable digital thermometer was used to measure the normal rectal temperature twice (with certain interval for each time), and the average value of the two measurements was taken as the normal body temperature of the rat. Then 70 rats with the body temperature between 36.5° C. and 38° C. were chosen to be randomly divided into 7 groups by weight: the model (0.5% carboxymethylcellulose) group, the 2.5, 5, and 10 mg/kg phillygenin ibuprofen ester groups, the positive drug paracetamol (100 mg/kg) group, the ibuprofen group (i.e. prodrug control group, 300 mg/kg), the phillygenin group (100 mg/kg), with 10 rats for each group. Each group of rats were subjected to back subcutaneous injection with 10% fresh beer yeast suspension of 10 ml/kg to induce heat. After administration of 10% fresh beer yeast suspension for 6.0 h, phillygenin ibuprofen ester and paracetamol were both subjected to intragastric administration, and the model group was intragastrically administrated with equal volume of 0.5% carboxymethylcellulose. Rectal temperature was measured after 1 h, 2 h, 3 h and 4 h of the administration respectively. Changes in the body temperature were observed and difference between the groups was compared by inter-group t test processing through antipyretic percentage.

In experiment [6] the test system is rabbit fever induced by typhoid and paratyphoid vaccine. In words: Rabbit fever induced by typhoid and paratyphoid vaccine. The class given is in vivo, Japanese white rabbits. Particulars: 50 mg/kg. Here is the method:
Japanese male big-ear white rabbits, weighing 1.5-2.0 kg. Before the test, WSC-411P portable digital thermometer was used to measure the normal rectal temperature twice (with certain interval for each time), and the average value was taken as the normal body temperature. Then 48 Japanese big-ear white rabbits with body temperature of 38-39.6° C. were selected and randomly divided into 8 groups by weight, namely: the blank control (normal saline) group, the model control (0.5% carboxymethylcellulose) group, the ibuprofen group (300 mg/kg), the phillygenin group (10 mg/kg), the 1.25, 2.5, and 5 mg/kg phillygenin ibuprofen ester groups and the positive drug paracetamol (50 mg/kg) group. The rabbits were fixed in a fixator. The blank control group was intravenously injected with normal saline of 1 ml/kg via the ear margin; The model control group and the drug groups were intravenously injected with typhoid and paratyphoid vaccines of 0.8 ml/kg via the ear margin. When the body temperature rise of the rabbits was greater than 1° C. (requiring about 1-1.5 h, which was restricted to 1 h in this test), the blank control group and the model group were administered intragastrically with 0.5% carboxymethycellulose of 1 ml/kg, and the drug groups were administered intragastrically with phillygenin ibuprofen ester and paracetamol. […]

Where [7] appears, read: after coating B liquid for 1 minute.
Setting [8] is: after coating B liquid for 5 minutes.
[9] abbreviates: after coating B liquid for 10 minutes.
The mark [10] stands for this setting: after coating B liquid for 15 minutes (Table 2-4).
[11] abbreviates: after coating B liquid for 15 minutes (Table 2-5).
Where [12] appears, read: time after administration (min) 30.
The mark [13] stands for this setting: time after administration (min) 60.
[14] abbreviates: time after administration (min) 90.
Setting [15] is: time after administration (min) 120.
The mark [16] stands for this setting: time after administration (min) 180.

Marks after values point to notes of the source that are not given here.

Consider `CC(=O)Oc1ccccc1C(=O)O` [Aspirin], for which the Writhing times in experiment [1] is given as 5.0*. Moreover, the “Swelling ratio (%)” value in experiment [2] (30 min) is 0.120 ± 0.138 %; in experiment [2] (60 min) it was 0.168 ± 0.172 %; in experiment [2] (120 min), 0.215 ± 0.178 %; in experiment [2] (180 min), 0.343 ± 0.337 %; in experiment [2] (240 min), 0.470 ± 0.289 %; in experiment [2] (300 min), 0.690 ± 0.369%. The “Swelling ratio (%)” value in experiment [2] (360 min) was 0.525 ± 0.338 %.

As for `CC[C@@H]1C(=O)OC[C@@H]1Cc1cncn1C` [Pilocarpine], in experiment [3] (setting [7]), the “Animal number of sweat points of level +” value is 1, the “Animal number of sweat points of level ++” value is given as 3, the “Animal number of sweat points of level +++” value was 1 and the “Animal number of sweat points of level ++++” value (“Animal number … of level ++++” for short) came to 5. In experiment [3] (setting [7]), the “Animal number of sweat points of level −” value is given as 0. Further, in experiment [3] (setting [8]), the “Animal number of sweat points of level +” value amounted to 1, the “Animal number of sweat points of level ++” value is listed as 2, the “Animal number of sweat points of level +++” value is 1 and the “Animal number … of level ++++” value was determined as 6. For the same molecule, the “Animal number of sweat points of level −” value in experiment [3] (setting [8]) came out at 0. In experiment [3] (setting [9]), the “Animal number of sweat points of level +” value was 1, the “Animal number of sweat points of level ++” value is listed as 2, the “Animal number of sweat points of level +++” value is given as 1 and the “Animal number … of level ++++” value amounted to 6. Besides, in experiment [3] (setting [9]), the “Animal number of sweat points of level −” value is 0. In experiment [3] (setting [10]), the “Animal number of sweat points of level +” value stood at 0, the “Animal number of sweat points of level ++” value turned out to be 2, the “Animal number of sweat points of level +++” value was 1 and the “Animal number … of level ++++” value amounted to 6. Further, the “Animal number of sweat points of level −” value in experiment [3] (setting [10]) was found to be 0. For the same molecule, in experiment [3] (setting [11]), the “Animal number of sweat points of level +” value was determined as 0, the “Animal number of sweat points of level ++” value is 2, the “Animal number of sweat points of level +++” value is given as 1 and the “Animal number … of level ++++” value is 6. The “Animal number of sweat points of level −” value in experiment [3] (setting [11]) stood at 0. In addition, in experiment [4], the “Number of sweat glands of vacuole” value was determined as 57 and the “Void fraction (%)” value is reported as 27.40*** %.

For `CC(=O)Nc1ccc(O)cc1` [Paracetamol], the “Body temperature (° C.)” value is 38.66 ± 0.58 °C in experiment [5] (1 h after administration); 38.19 ± 0.59 °C in experiment [5] (2 h after administration); 37.98 ± 0.19 °C in experiment [5] (3 h after administration); 37.84 ± 0.32 °C in experiment [5] (4 h after administration); 40.53 ± 0.68 °C in experiment [6] (setting [12]); 40.10 ± 0.48 °C in experiment [6] (setting [13]). For the same molecule, the “Body temperature (° C.)” value came out at 39.83 ± 0.57 °C in experiment [6] (setting [14]), 39.72 ± 0.54 °C in experiment [6] (setting [15]) and 39.61 ± 0.48 °C in experiment [6] (setting [16]). Also, the “antipyretic percentage (%)” value in experiment [5] (1 h after administration) was −2.07 ± 0.54 %; in experiment [5] (2 h after administration), −3.27 ± 0.77 %; in experiment [5] (3 h after administration), −3.80 ± 1.43 %; in experiment [5] (4 h after administration), −4.15 ± 1.59 %; in experiment [6] (setting [12]), −1.14 ± 0.59 %; in experiment [6] (setting [13]), −2.18 ± 0.16 %. The entries for the “antipyretic percentage (%)” value in experiment [6] (setting [14]), in experiment [6] (setting [15]) and in experiment [6] (setting [16]) were −2.83 ± 0.16 %, −3.11 ± 0.29 % and −3.38 ± 0.25 %, respectively.

Values taken from patent US9963461B2, “Phillygenin ibuprofen ester, preparation method therefor, and application thereof” (priority 2014, dated 2018).
